In patent publication US3965109A, “Certain aryl amino pyridines” (priority 1971, dated 1976):

What was measured:
Uncinula necator (vine) = assay: Fungicidal test against foliar disease D (foliage spray plus soil drench); format: in vivo; details: 100 ppm spray and drench; 10 days
[1] = test system: Tetranychus telarius (red spider mites, adults); assay: Pest toxicity test; format: in vivo; details: 0.1% by weight; French bean; 3 days
[2] = test system: Tetranychus telarius (red spider mites, eggs); assay: Pest toxicity test; format: in vivo; details: 0.1% by weight; French bean; 3 days
Aphis fabae = assay: Pest toxicity test; format: in vivo; details: 0.1% by weight; broad bean; 2 days
Megoura viceae = assay: Pest toxicity test; format: in vivo; details: 0.1% by weight; broad bean; 2 days
[3] = test system: Aedes aegypti (mosquito larvae); assay: Pest toxicity test; format: in vivo; details: 0.01% by weight; water; 1 day
[4] = test system: Aedes aegypti (mosquito adults); assay: Pest toxicity test; format: in vivo; details: 0.01% by weight; plywood; 1 day
[5] = test system: Musca domestica (houseflies); assay: Pest toxicity test, contact test; format: in vivo; details: 0.1% by weight; milk/sugar; 2 days; flies sprayed directly
[6] = test system: Pieris brassicae (cabbage white caterpillars); assay: Pest toxicity test; format: in vivo; details: 0.1% by weight, 2 days
[7] = test system: Plutella maculipennis (diamond back moth larvae); assay: Pest toxicity test; format: in vivo; details: in vivo
[8] = test system: Phaedon cochleariae (mustard beetles); assay: Pest toxicity test; format: in vivo; details: in vivo
[9] = test system: Agriolimax reticulatus (slugs); assay: Molluscicidal activity test; format: in vivo, Agriolimax reticulatus (Mull); details: pellet with 4% by weight; 6 days; 10°C
Procedure: A weighed sample of the compound under test was dissolved in 0.5 c.c. of an ethanol and acetone mixture 50:50 v/v). The solution was diluted with 0.5 cc water and poured onto a calf feeding pellet in a glass Petri dish. The pellet was then air dried for 24 hours. The weight of compound used was chosen so that the dried pellet contained 4% by weight of the active ingredient. Two replicates each consisting of a plastic Petri dish containing a pellet, 2 slugs, and a moistened filter paper to maintain a high relative humidity were used in each test. The dishes were left in a cold room (10°C.) After 6 days the kill was assessed.
The slugs used were Agriolimax reticulatus (Mull), and they had been starved for 24 hours before the commencement of the tests.

Lettuce = assay: Herbicidal test, pre- and post-emergence; format: in vivo; details: 10 kg/ha; scale 0 to 3 (complete kill)
Tomato = assay: Herbicidal test, pre- and post-emergence; format: in vivo; details: 10 kg/ha; scale 0 to 3 (complete kill)
Wheat = assay: Herbicidal test, pre- and post-emergence; format: in vivo; details: 10 kg/ha; scale 0 to 3 (complete kill)
Maize = assay: Herbicidal test, pre- and post-emergence; format: in vivo; details: 10 kg/ha; scale 0 to 3 (complete kill)
Sugar beet = assay: Further herbicidal test, various rates; format: in vivo; details: 5 kg/hectare; scale 0 to 5 (complete kill)
Kale = assay: Further herbicidal test, various rates; format: in vivo; details: 5 kg/hectare; scale 0 to 5 (complete kill)
Carrot = assay: Further herbicidal test, various rates; format: in vivo; details: 5 kg/hectare; scale 0 to 5 (complete kill)
Pea = assay: Further herbicidal test, various rates; format: in vivo; details: 5 kg/hectare; scale 0 to 5 (complete kill)
Onion = assay: Further herbicidal test, various rates; format: in vivo; details: 5 kg/hectare; scale 0 to 5 (complete kill)
Barley = assay: Further herbicidal test, various rates; format: in vivo; details: 5 kg/hectare; scale 0 to 5 (complete kill)
Rice = assay: Further herbicidal test, various rates; format: in vivo; details: 5 kg/hectare; scale 0 to 5 (complete kill)
Oat = assay: Further herbicidal test, various rates; format: in vivo; details: 5 kg/hectare; scale 0 to 5 (complete kill)
[10] = test system: Puccinia recondita (wheat); assay: Fungicidal test against foliar disease A (foliage spray plus soil drench); format: in vivo; details: 100 ppm spray and drench; 10 days
[11] = test system: Plasmopara viticola (vine); assay: Fungicidal test against foliar disease C (foliage spray plus soil drench); format: in vivo; details: 100 ppm spray and drench; 10 days
[12] = test system: Piricularia oryzae (rice); format: in vivo; details: 100 ppm spray and drench; 7 days

Row | Structure (SMILES) | Mortality grading (kill) [1] | Mortality grading (kill) [2] | Mortality grading (kill) (Aphis fabae) | Mortality grading (kill) (Megoura viceae) | Mortality grading (kill) [3] | Mortality grading (kill) [4] | Mortality grading (kill), contact test [5] | Mortality grading (kill) [6] | Mortality grading (kill) [7] | Mortality grading (kill) [8] | % Kill of slugs [9] | Damage to plants, post-emergence (Lettuce) | Damage to plants, pre-emergence (Lettuce) | Damage to plants, post-emergence (Tomato) | Damage to plants, pre-emergence (Tomato) | Damage to plants, post-emergence (Wheat) | Damage to plants, pre-emergence (Wheat) | Damage to plants, post-emergence (Maize) | Damage to plants, pre-emergence (Maize) | Damage to plants, pre-emergence (Sugar beet) | other results
1 | Fc1nc(F)c(Cl)c(Nc2c(Cl)c(F)c(Cl)c(F)c2Cl)c1Cl [Compound 43, 3,5-Dichloro-2,6-difluoro-4(3,5-difluoro-2,4,6-trichloroanilino) pyridine] | 3 (3 represents over 90% kill) | 3 (3 represents over 90% kill) | 3 (3 represents over 90% kill) | 3 (3 represents over 90% kill) | 3 (3 represents over 90% kill) | 0 (O represents less than 30% kill) | 3 (3 represents over 90% kill) | 3 (3 represents over 90% kill) | 2 (key: O represents less than 30% kill; 1 represents 30 - 49% kill; 2 represents 60 - 90% kill; 3 represents over 90% kill; C indicates a chemosterilant effect.; A indicates an antifeeding effect.) | 0 (key: O represents less than 30% kill; 1 represents 30 - 49% kill; 2 represents 60 - 90% kill; 3 represents over 90% kill; C indicates a chemosterilant effect.; A indicates an antifeeding effect.) | 100% | 3 | 3 | 3 | 1 | 0 | 1 | 2 | 0 | 0 | Amount of disease grading, disease D (Table 4) (Uncinula necator (vine)): 3 (0 to 5); Damage to plants, post-emergence (Sugar beet): 5; Damage to plants, post-emergence (Kale): 5; Damage to plants, pre-emergence (Kale): 1; Damage to plants, post-emergence (Carrot): 5; Damage to plants, pre-emergence (Carrot): 0; Damage to plants, post-emergence (Pea): 5; Damage to plants, pre-emergence (Pea): 0; Damage to plants, pre-emergence (Onion): 0; Damage to plants, post-emergence (Barley): 3; Damage to plants, pre-emergence (Barley): 1; Damage to plants, post-emergence (Rice): 1; Damage to plants, pre-emergence (Rice): 0; Damage to plants, post-emergence (Oat): 4; Damage to plants, pre-emergence (Oat): 0
2 | O=[N+]([O-])c1cc(Cl)c(Nc2c(Cl)c(F)nc(F)c2Cl)c(Cl)c1 [Compound 27, 3,5-Dichloro-2,6-difluoro-4(2,6-dichloro-4-nitroanilino)pyridine] | 3 (3 represents over 90% kill) | 3 (3 represents over 90% kill) | 3 (3 represents over 90% kill) | 3 (3 represents over 90% kill) | 3 (3 represents over 90% kill) | 2 (2 represents 60 - 90% kill) | 3 (3 represents over 90% kill) | 0 (O represents less than 30% kill) | 0 (key: O represents less than 30% kill; 1 represents 30 - 49% kill; 2 represents 60 - 90% kill; 3 represents over 90% kill; C indicates a chemosterilant effect.; A indicates an antifeeding effect.) | 0 (key: O represents less than 30% kill; 1 represents 30 - 49% kill; 2 represents 60 - 90% kill; 3 represents over 90% kill; C indicates a chemosterilant effect.; A indicates an antifeeding effect.) | 100% | 3 | 3 | 1 | 3 | 0 | 0 | 0 | 0 | 4 | Amount of disease grading, disease A (Table 4) [10]: 0 (61 to 100); Amount of disease grading, disease C (Table 4) [11]: 3 (0 to 5); Amount of disease grading, disease D (Table 4) (Uncinula necator (vine)): 3 (0 to 5); Damage to plants, pre-emergence (Kale): 4; Damage to plants, pre-emergence (Carrot): 4; Damage to plants, pre-emergence (Pea): 3; Damage to plants, pre-emergence (Onion): 0; Damage to plants, pre-emergence (Barley): 0; Damage to plants, pre-emergence (Rice): 0; Damage to plants, pre-emergence (Oat): 0
3 | N#Cc1c(F)c(F)c(Nc2c(Cl)c(Cl)nc(Cl)c2Cl)c(F)c1F [Compound 42, 4(4-Cyano-2,3,5,6-tetrafluoroanilino)tetrachloropyridine] | 3 (3 represents over 90% kill) | 3 (3 represents over 90% kill) | 3 (3 represents over 90% kill) | 3 (3 represents over 90% kill) | 3 (3 represents over 90% kill) | 0 (O represents less than 30% kill) | 3 (3 represents over 90% kill) | 3 (3 represents over 90% kill) | 0 (key: O represents less than 30% kill; 1 represents 30 - 49% kill; 2 represents 60 - 90% kill; 3 represents over 90% kill; C indicates a chemosterilant effect.; A indicates an antifeeding effect.) | 0 (key: O represents less than 30% kill; 1 represents 30 - 49% kill; 2 represents 60 - 90% kill; 3 represents over 90% kill; C indicates a chemosterilant effect.; A indicates an antifeeding effect.) | 50% | 2 | 3 | 3 | 3 | 0 | 3 | 0 | 3 | 5 | Amount of disease grading, disease A (Table 4) [10]: 3 (0 to 5); Amount of disease grading, disease E (Table 4) [12]: 0 (61 to 100); Damage to plants, post-emergence (Sugar beet): 5; Damage to plants, post-emergence (Kale): 5; Damage to plants, pre-emergence (Kale): 4; Damage to plants, post-emergence (Carrot): 5; Damage to plants, pre-emergence (Carrot): 5; Damage to plants, post-emergence (Pea): 1; Damage to plants, pre-emergence (Pea): 2; Damage to plants, pre-emergence (Onion): 5; Damage to plants, post-emergence (Barley): 1; Damage to plants, pre-emergence (Barley): 3; Damage to plants, post-emergence (Rice): 0; Damage to plants, pre-emergence (Rice): 3; Damage to plants, post-emergence (Oat): 4; Damage to plants, pre-emergence (Oat): 4
